The experiment deals with PIK3CG (human) (UniProt P48736). Put plainly: Inhibition of PIK3CG Kinase Activity.
Chain of PIK3CG (human) (P48736 whole entry, looked up): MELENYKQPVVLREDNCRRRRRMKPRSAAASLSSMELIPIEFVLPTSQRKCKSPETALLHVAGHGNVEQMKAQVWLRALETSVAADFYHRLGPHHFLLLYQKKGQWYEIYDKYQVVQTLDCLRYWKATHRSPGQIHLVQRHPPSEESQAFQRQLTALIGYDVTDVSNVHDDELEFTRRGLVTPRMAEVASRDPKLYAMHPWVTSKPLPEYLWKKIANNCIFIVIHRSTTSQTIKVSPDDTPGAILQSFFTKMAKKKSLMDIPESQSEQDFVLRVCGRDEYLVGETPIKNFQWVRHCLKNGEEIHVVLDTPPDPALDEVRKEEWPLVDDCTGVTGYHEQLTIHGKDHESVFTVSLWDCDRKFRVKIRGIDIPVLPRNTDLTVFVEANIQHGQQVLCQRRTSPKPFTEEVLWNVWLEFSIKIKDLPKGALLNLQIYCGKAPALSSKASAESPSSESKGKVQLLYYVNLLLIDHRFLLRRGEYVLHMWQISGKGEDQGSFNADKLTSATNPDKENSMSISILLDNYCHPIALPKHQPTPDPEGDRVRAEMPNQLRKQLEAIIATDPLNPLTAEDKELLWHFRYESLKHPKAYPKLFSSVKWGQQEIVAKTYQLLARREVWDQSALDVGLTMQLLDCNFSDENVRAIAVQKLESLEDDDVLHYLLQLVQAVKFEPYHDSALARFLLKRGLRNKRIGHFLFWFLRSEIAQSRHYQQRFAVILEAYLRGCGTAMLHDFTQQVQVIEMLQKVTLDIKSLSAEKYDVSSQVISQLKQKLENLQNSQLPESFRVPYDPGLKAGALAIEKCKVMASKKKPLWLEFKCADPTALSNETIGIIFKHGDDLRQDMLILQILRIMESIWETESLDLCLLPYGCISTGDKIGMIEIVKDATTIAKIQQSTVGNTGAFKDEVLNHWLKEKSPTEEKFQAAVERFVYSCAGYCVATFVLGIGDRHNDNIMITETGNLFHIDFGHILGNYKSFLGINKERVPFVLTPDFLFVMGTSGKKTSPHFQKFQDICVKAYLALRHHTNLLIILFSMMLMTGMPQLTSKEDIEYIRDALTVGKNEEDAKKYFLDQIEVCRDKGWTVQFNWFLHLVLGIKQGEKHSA
The molecule `COc1ccccc1C1CCN(C(=O)Nc2nc3c(s2)-c2c(cnn2-c2ccccc2Cl)C3)C1` (configuration not stated) returned an IC50 of less than 800 nM.

`CC(NC(=O)Nc1nc2c(s1)-c1c(cnn1-c1ccccc1Cl)C2)c1cccc(NC(=O)OC(C)(C)C)c1` (configuration not stated) showed a half-inhibitory concentration (IC50) of less than 800 nM.

`Nc1cc(CNC(=O)Nc2nc3c(s2)-c2c(cnn2-c2ccccc2C(F)(F)F)C3)[nH]n1` yielded an IC50 of less than 800 nM.

As for `CC(C)(C)CNC(=O)Nc1nc2c(s1)-c1c(cnn1-c1ccccc1Cl)C2`, the IC50 was less than 800 nM.

For `CCCNC(=O)Nc1nc2c(s1)-c1c(cnn1-c1cc(F)ccc1C(F)(F)F)C2`, the IC50 is less than 800 nM.

In the case of `CCOC(=O)Cn1nc(CCNC(=O)Nc2nc3c(s2)-c2c(cnn2-c2ccccc2C(F)(F)F)C3)cc1N`, the IC50 is less than 800 nM.

In turn, `CC(C)(C)OC(=O)CCNC(=O)Nc1nc2c(s1)-c1c(cnn1-c1ccccc1Cl)C2` gave an IC50 of less than 800 nM.

In the case of `CCn1nc(CNC(=O)Nc2nc3c(s2)-c2c(cnn2-c2ccccc2C(F)(F)F)C3)cc1N`, the IC50 was less than 800 nM.

`CCCCNC(=O)Nc1nc2c(s1)-c1c(cnn1-c1ccccc1C(F)(F)F)C2`: the IC50 is less than 800 nM.

`Nc1nnc(CNC(=O)Nc2nc3c(s2)-c2c(cnn2-c2ccccc2C(F)(F)F)C3)[nH]1` had an IC50 of less than 800 nM.

For `CCc1csc(CCNC(=O)Nc2nc3c(s2)-c2c(cnn2-c2ccccc2C(F)(F)F)C3)n1`, the IC50 was less than 800 nM.

For `CC(C)c1cnc(CCNC(=O)Nc2nc3c(s2)-c2c(cnn2-c2ccccc2C(F)(F)F)C3)o1`, the concentration for half-maximal inhibition (IC50) was less than 800 nM.

Consider `O=C(Nc1nc2c(s1)-c1c(cnn1-c1ccccc1Cl)C2)N1CCC(N2CCNC2=O)CC1`, for which the IC50 was less than 800 nM.

As for `Nc1cc(-c2ccccc2)nn1CCNC(=O)Nc1nc2c(s1)-c1c(cnn1-c1ccccc1C(F)(F)F)C2`, the IC50 was less than 800 nM.

Regarding `CC(C)(C)OC(=O)NC1CCN(C(=O)Nc2nc3c(s2)-c2c(cnn2-c2ccccc2Cl)C3)C1` (configuration not stated), the IC50 was less than 800 nM.

For `CN(C)C(=O)Nc1nc2c(s1)-c1c(cnn1-c1ccccc1Br)C2`, the IC50 was less than 800 nM.

As for `Nc1cc(CCNC(=O)Nc2nc3c(s2)-c2c(cnn2-c2ccccc2C(F)(F)F)C3)nn1C1CCN(Cc2ccccc2)CC1`, the IC50 was less than 800 nM.

For the molecule `O=C(NCc1ccccc1)Nc1nc2c(s1)-c1c(cnn1-c1ccccc1Cl)C2`, the IC50 is less than 800 nM.

With `CC(C)(C)OC(=O)N1CCCC(CNC(=O)Nc2nc3c(s2)-c2c(cnn2-c2ccccc2Cl)C3)C1` (configuration not stated), the IC50 was less than 800 nM.

Turning to `CNC(=O)Nc1nc2c(s1)-c1c(cnn1-c1cc(Cl)ccc1Cl)C2`, the IC50 is less than 800 nM.

As to `CN(Cc1ccco1)C(=O)Nc1nc2c(s1)-c1c(cnn1-c1ccccc1C(F)(F)F)C2`, the IC50 was less than 800 nM.

`CCOC(=O)c1ccc(CNC(=O)Nc2nc3c(s2)-c2c(cnn2-c2ccccc2C(F)(F)F)C3)o1`: the half-inhibitory concentration (IC50) was less than 800 nM.

`O=C(NCc1ccccn1)Nc1nc2c(s1)-c1c(cnn1-c1ccccc1C(F)(F)F)C2` yielded an IC50 of less than 800 nM.

As to `CC(C)(CNc1ccc(C(C)(C)C)cc1)NC(=O)Nc1nc2c(s1)-c1c(cnn1-c1ccccc1Cl)C2`, the 50% inhibitory concentration (IC50) was less than 800 nM.

Turning to `CCc1noc(CCNC(=O)Nc2nc3c(s2)-c2c(cnn2-c2ccccc2C(F)(F)F)C3)n1`, the IC50 was less than 800 nM.

On to `CN(C(=O)OC(C)(C)C)C1CCN(C(=O)Nc2nc3c(s2)-c2c(cnn2-c2ccccc2Cl)C3)C1` (configuration not stated), for which the IC50 is less than 800 nM.

`O=C(NCC1CCC(N2CCNC2=O)CC1)Nc1nc2c(s1)-c1c(cnn1-c1ccccc1Cl)C2` (configuration not stated): the IC50 is less than 800 nM.

Molecule `NC(=O)c1cccc(CNC(=O)Nc2nc3c(s2)-c2c(cnn2-c2ccccc2C(F)(F)F)C3)c1` registered an IC50 of less than 800 nM.

As to `CC(C)NC(=O)Nc1nc2c(s1)-c1c(cnn1-c1ccccc1C(F)(F)F)C2`, the IC50 was less than 800 nM.

The molecule `CCc1noc(CCNC(=O)Nc2nc3c(s2)-c2c(cnn2-c2ccccc2Cl)C3)n1` showed an IC50 of less than 800 nM.

In turn, `NC(=O)Nc1nc2c(s1)-c1c(cnn1-c1cc(Cl)ccc1Cl)C2` came in with an IC50 of less than 800 nM.

Molecule `O=C(NCc1nnn[nH]1)Nc1nc2c(s1)-c1c(cnn1-c1ccccc1C(F)(F)F)C2` yielded an IC50 of less than 800 nM.

For `O=C(NCCO)Nc1nc2c(s1)-c1c(cnn1-c1ccccc1C(F)(F)F)C2`, the IC50 is less than 800 nM.

For the molecule `CCNC(=O)Nc1nc2c(s1)-c1c(cnn1-c1ccccc1C(F)(F)F)C2`, the IC50 was less than 800 nM.

Molecule `O=C(NCCN1CCCC1)Nc1nc2c(s1)-c1c(cnn1-c1ccccc1Br)C2` showed a 50% inhibitory concentration (IC50) of less than 800 nM.

`CN(Cc1cccs1)C(=O)Nc1nc2c(s1)-c1c(cnn1-c1ccccc1C(F)(F)F)C2` came in with an IC50 of less than 800 nM.

`Cc1ccc(CN2CC(NC(=O)Nc3nc4c(s3)-c3c(cnn3-c3ccccc3Cl)C4)CC2=O)cc1` (configuration not stated) came in with an IC50 of less than 800 nM.

Consider `CCCn1nc(CCNC(=O)Nc2nc3c(s2)-c2c(cnn2-c2ccccc2C(F)(F)F)C3)cc1N`, for which the IC50 was less than 800 nM.

In turn, `O=C(NCc1cccc(N2CCNC2=O)c1)Nc1nc2c(s1)-c1c(cnn1-c1ccccc1C(F)(F)F)C2` registered an IC50 of less than 800 nM.

As for `CC(=O)NCC1CCCN(C(=O)Nc2nc3c(s2)-c2c(cnn2-c2ccccc2Cl)C3)C1` (configuration not stated), the IC50 is less than 800 nM.

`CCCn1ccc(CNC(=O)Nc2nc3c(s2)-c2c(cnn2-c2ccccc2C(F)(F)F)C3)n1` registered an IC50 of less than 800 nM.

`Cc1cc(-c2cccnc2)n(CCNC(=O)Nc2nc3c(s2)-c2c(cnn2-c2ccccc2C(F)(F)F)C3)n1` showed an IC50 of less than 800 nM.

`CNC(=O)Nc1nc2c(s1)-c1c(cnn1-c1ccccc1Br)C2` had a 50% inhibitory concentration (IC50) of less than 800 nM.

`CCN1CCC[C@@H]1CNC(=O)Nc1nc2c(s1)-c1c(cnn1-c1ccccc1Cl)C2`: the IC50 is less than 800 nM.

In turn, `Nc1cc(CCNC(=O)Nc2nc3c(s2)-c2c(cnn2-c2ccccc2C(F)(F)F)C3)nn1C1CCCCC1` came in with a concentration for half-maximal inhibition (IC50) of less than 800 nM.

`O=C(NCc1ccn[nH]1)Nc1nc2c(s1)-c1c(cnn1-c1ccccc1C(F)(F)F)C2` had an IC50 of less than 800 nM.

Turning to `O=C(NCc1cc(C2CC2)n[nH]1)Nc1nc2c(s1)-c1c(cnn1-c1cccc(F)c1C(F)(F)F)C2`, the IC50 is less than 800 nM.

Molecule `Cc1cc(C2CCCCC2)n(CCNC(=O)Nc2nc3c(s2)-c2c(cnn2-c2ccccc2C(F)(F)F)C3)n1` came in with an IC50 of less than 800 nM.

`O=C(NCCc1cn[nH]c1)Nc1nc2c(s1)-c1c(cnn1-c1ccccc1Cl)C2` returned a half-maximal inhibitory concentration (IC50) of less than 800 nM.

Turning to `CCn1cnc(CCNC(=O)Nc2nc3c(s2)-c2c(cnn2-c2cc(Cl)ccc2Cl)C3)c1`, the IC50 was less than 800 nM.

Regarding `Cn1cc(CCNC(=O)Nc2nc3c(s2)-c2c(cnn2-c2ccccc2C(F)(F)F)C3)cn1`, the IC50 is less than 800 nM.

As to `CCn1ccc(CNC(=O)Nc2nc3c(s2)-c2c(cnn2-c2ccccc2C(F)(F)F)C3)n1`, the IC50 is less than 800 nM.

For `CCCCn1nc(CCNC(=O)Nc2nc3c(s2)-c2c(cnn2-c2ccccc2C(F)(F)F)C3)cc1N`, the IC50 is less than 800 nM.

For the molecule `O=C1CCC(NC(=O)Nc2nc3c(s2)-c2c(cnn2-c2ccccc2Cl)C3)C(c2ccccc2)N1` (configuration not stated), the IC50 is less than 800 nM.

`CC(C)(C)n1nc(CNC(=O)Nc2nc3c(s2)-c2c(cnn2-c2ccccc2C(F)(F)F)C3)cc1N`: the half-maximal inhibitory concentration (IC50) was less than 800 nM.

Turning to `O=C(NCCc1ccncc1)Nc1nc2c(s1)-c1c(cnn1-c1ccccc1Cl)C2`, the half-maximal inhibitory concentration (IC50) is less than 800 nM.

In turn, `CN(C)C(=O)CNC(=O)Nc1nc2c(s1)-c1c(cnn1-c1ccccc1C(F)(F)F)C2` displayed an IC50 of less than 800 nM.

As for `CC1(C)NC(=O)N(Cc2ccc(CNC(=O)Nc3nc4c(s3)-c3c(cnn3-c3ccccc3Cl)C4)cc2)C1=O`, the IC50 was less than 800 nM.

In turn, `CC(C)(C)OC(=O)N1CCC[C@@H]1CNC(=O)Nc1nc2c(s1)-c1c(cnn1-c1ccccc1C(F)(F)F)C2` showed an IC50 of less than 800 nM.

In the case of `CC(C)n1nc(CNC(=O)Nc2nc3c(s2)-c2c(cnn2-c2ccccc2C(F)(F)F)C3)cc1N`, the IC50 was less than 800 nM.

As for `Cc1nn(C)cc1CNC(=O)Nc1nc2c(s1)-c1c(cnn1-c1ccccc1Cl)C2`, the half-maximal inhibitory concentration (IC50) was less than 800 nM.

The molecule `Cn1nc(CCNC(=O)Nc2nc3c(s2)-c2c(cnn2-c2ccccc2C(F)(F)F)C3)cc1N` had an IC50 of less than 800 nM.

In turn, `CCCNC(=O)Nc1nc2c(s1)-c1c(cnn1-c1ccccc1Cl)C2` returned a half-inhibitory concentration (IC50) of less than 800 nM.

The molecule `CC(C)(C)OC(=O)CCNC(=O)Nc1nc2c(s1)-c1c(cnn1-c1cc(Cl)ccc1Cl)C2` displayed an IC50 of less than 800 nM.

Consider `CC(C)c1nnc(CCNC(=O)Nc2nc3c(s2)-c2c(cnn2-c2ccccc2C(F)(F)F)C3)o1`, for which the IC50 is less than 800 nM.

In turn, `CC(=O)NC1CCN(C(=O)Nc2nc3c(s2)-c2c(cnn2-c2ccccc2Cl)C3)C1` (configuration not stated) came in with an IC50 of less than 800 nM.

Take `N#CCCn1nc(CCNC(=O)Nc2nc3c(s2)-c2c(cnn2-c2ccccc2C(F)(F)F)C3)cc1N`: the IC50 was less than 800 nM.

In turn, `CCNC(=O)Nc1c(CCNC(=O)Nc2nc3c(s2)-c2c(cnn2-c2ccccc2C(F)(F)F)C3)cnn1C` gave an IC50 of less than 800 nM.

With `Cn1cc(CNC(=O)Nc2nc3c(s2)-c2c(cnn2-c2ccccc2C(F)(F)F)C3)cn1`, the IC50 is less than 800 nM.

For `CCCNC(=O)Nc1nc2c(s1)-c1c(cnn1-c1cc(Cl)ccc1Cl)C2`, the 50% inhibitory concentration (IC50) is less than 800 nM.

On to `CCn1cnc(CCNC(=O)Nc2nc3c(s2)-c2c(cnn2-c2ccccc2Cl)C3)c1`, for which the half-inhibitory concentration (IC50) was less than 800 nM.

As for `Cn1nc(CNC(=O)Nc2nc3c(s2)-c2c(cnn2-c2ccccc2C(F)(F)F)C3)cc1N`, the IC50 was less than 800 nM.

The molecule `CCNC(=O)Nc1nc2c(s1)-c1c(cnn1-c1ccccc1Br)C2` registered an IC50 of less than 800 nM.

For the molecule `CCn1cnc(CCNC(=O)Nc2nc3c(s2)-c2c(cnn2-c2cccc(F)c2C(F)(F)F)C3)c1`, the IC50 is less than 800 nM.

Take `O=C(NCCc1ccccn1)Nc1nc2c(s1)-c1c(cnn1-c1ccccc1Cl)C2`: the IC50 was less than 800 nM.

As to `CC(C)c1noc(CCNC(=O)Nc2nc3c(s2)-c2c(cnn2-c2ccccc2Cl)C3)n1`, the IC50 was less than 800 nM.

`N#Cc1ccc(CNC(=O)Nc2nc3c(s2)-c2c(cnn2-c2ccccc2C(F)(F)F)C3)s1` had an IC50 of less than 800 nM.

In the case of `CC(C)(C)c1cc(N)n(CCNC(=O)Nc2nc3c(s2)-c2c(cnn2-c2ccccc2C(F)(F)F)C3)n1`, the IC50 was less than 800 nM.

`O=C(NCc1nccs1)Nc1nc2c(s1)-c1c(cnn1-c1ccccc1C(F)(F)F)C2`: the IC50 was less than 800 nM.

`O=C(NCCc1cn[nH]c1)Nc1nc2c(s1)-c1c(cnn1-c1ccccc1C(F)(F)F)C2` showed an IC50 of less than 800 nM.

For `O=C(NCC1CC1)Nc1nc2c(s1)-c1c(cnn1-c1cccc(F)c1C(F)(F)F)C2`, the IC50 was less than 800 nM.

In turn, `Cn1ccc(CNC(=O)Nc2nc3c(s2)-c2c(cnn2-c2ccccc2C(F)(F)F)C3)n1` had an IC50 of less than 800 nM.

By IC50 is commonly meant the point on the concentration scale where inhibition reaches its midpoint. Lower therefore signals higher potency.

For the origin of these results see the Kinase Knowledgebase extract (Sharma et al. 2016).
